Assay results reported in ChEMBL document CHEMBL1201862, “PubChem BioAssay data set” (2004).
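Following 48 hours of exposure in 96-well plates, responses at five concentrations were used to interpolate endpoints linearly. The concentration for 50% growth inhibition is given as GI50.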 Activity calls are given as the source filed them. Cut-off read from the data, not from the text of the source: active = GI50 up to about 1.1 µM and inactive = higher.

Tests used:
Experiment in all cases: NCI-60 cell line screen, 48 h
786-0 = system: 786-0
A498 = system: A498
ACHN = system: ACHN
IGROV-1 = system: IGROV-1
K562 = system: K562
KM12 = system: KM12
LOX IMVI = system: LOX IMVI
Malme-3M = system: Malme-3M
NCI-H226 = system: NCI-H226
NCI-H23 = system: NCI-H23
NCI-H460 = system: NCI-H460
OVCAR-4 = system: OVCAR-4
OVCAR-8 = system: OVCAR-8
SF-295 = system: SF-295
SK-OV-3 = system: SK-OV-3
SR = system: SR
TK-10 = system: TK-10
U-251 = system: U-251
UACC-62 = system: UACC-62
SNB-75 = system: SNB-75

Measured: GI50

COC(=O)[C@]1(C)CCC[C@@]2(C)C1CCC1=CC3(C(C)C)CCC12OO3 (stereo not given in full)
inactive: 786-0 85.3 µM | A498 18.7 µM | ACHN 63.4 µM | IGROV-1 > 100 µM | K562 27.7 µM | KM12 > 100 µM | LOX IMVI 81.1 µM | Malme-3M 36.2 µM | NCI-H226 43.7 µM | NCI-H23 77.1 µM | NCI-H460 58.6 µM | OVCAR-4 51.3 µM | OVCAR-8 63.8 µM | SF-295 46.5 µM | SK-OV-3 > 100 µM | SR 27.9 µM | TK-10 > 100 µM | U-251 > 100 µM | UACC-62 57 µM

O=C(CC1C(=O)Nc2ccccc2[S+]1[O-])Nc1ccccc1 (stereo not given)
inactive: 786-0 40.8 µM | A498 > 100 µM | ACHN 59.7 µM | IGROV-1 > 100 µM | KM12 > 100 µM | Malme-3M > 100 µM | NCI-H226 > 100 µM | NCI-H23 > 100 µM | NCI-H460 > 100 µM | OVCAR-4 > 100 µM | OVCAR-8 36.4 µM | SF-295 > 100 µM | SK-OV-3 26.9 µM | SNB-75 29.6 µM | SR 17.2 µM | TK-10 > 100 µM | U-251 > 100 µM | UACC-62 > 100 µM

CCOC(=O)C1(C#N)C(c2ccccc2)CC(O)(c2ccc(Cl)cc2)C(C(=O)c2ccc(Cl)cc2)C1c1ccccc1 (stereo not given)
inactive: 786-0 > 100 µM | ACHN > 100 µM | IGROV-1 > 100 µM | K562 > 10 µM | KM12 34 µM | LOX IMVI > 100 µM | Malme-3M > 100 µM | NCI-H226 > 100 µM | NCI-H23 > 100 µM | NCI-H460 > 100 µM | OVCAR-4 > 100 µM | OVCAR-8 > 100 µM | SF-295 41 µM | SK-OV-3 38.6 µM | SNB-75 21.1 µM | SR > 100 µM | TK-10 > 100 µM | U-251 > 10 µM | UACC-62 > 100 µM

O=C1N=CN=C2C=CC(Cl)=C(I)C12 (stereo not given)
inactive: 786-0 > 100 µM | A498 85.3 µM | ACHN 43.4 µM | IGROV-1 33.3 µM | K562 > 100 µM | KM12 > 100 µM | LOX IMVI 56.1 µM | Malme-3M > 100 µM | NCI-H23 46.2 µM | NCI-H460 75.5 µM | OVCAR-4 > 100 µM | OVCAR-8 > 100 µM | SF-295 > 100 µM | SK-OV-3 49.3 µM | SR 91.8 µM | TK-10 80.9 µM | U-251 74.3 µM | UACC-62 45.3 µM

O=S(=O)(N/N=C1\CC2CCC1C2)c1ccccc1 (stereo not given)
inactive: 786-0 > 100 µM | ACHN > 100 µM | IGROV-1 > 100 µM | K562 > 100 µM | KM12 > 100 µM | LOX IMVI > 100 µM | Malme-3M > 100 µM | NCI-H226 > 100 µM | NCI-H23 > 100 µM | NCI-H460 > 100 µM | OVCAR-4 > 100 µM | OVCAR-8 > 100 µM | SF-295 > 100 µM | SK-OV-3 > 100 µM | SNB-75 > 100 µM | SR > 100 µM | TK-10 > 100 µM | U-251 > 100 µM | UACC-62 > 100 µM

O=C1CN=C(C[N+](=O)[O-])c2ccccc21
inactive: 786-0 > 100 µM | A498 > 100 µM | ACHN > 100 µM | IGROV-1 > 100 µM | K562 > 100 µM | KM12 > 100 µM | Malme-3M > 100 µM | NCI-H226 > 100 µM | NCI-H23 > 100 µM | NCI-H460 > 100 µM | OVCAR-4 > 100 µM | OVCAR-8 > 100 µM | SF-295 > 100 µM | SK-OV-3 > 100 µM | SNB-75 > 100 µM | SR > 100 µM | U-251 > 100 µM

C[n+]1c2ccccc2c(NCC(=O)O)c2ccccc21
inactive: 786-0 > 100 µM | A498 > 100 µM | ACHN > 100 µM | IGROV-1 > 100 µM | K562 > 100 µM | KM12 > 100 µM | Malme-3M > 100 µM | NCI-H226 > 100 µM | NCI-H23 > 100 µM | NCI-H460 > 100 µM | OVCAR-4 > 100 µM | OVCAR-8 > 100 µM | SF-295 > 100 µM | SK-OV-3 > 100 µM | SNB-75 > 100 µM | SR > 100 µM | TK-10 > 100 µM | U-251 > 100 µM | UACC-62 > 100 µM

CC(=O)Oc1cc(/C=C/c2ccc(O)cc2)cc(OC(C)=O)c1
inactive: 786-0 37.5 µM | A498 25.4 µM | ACHN 9.59 µM | IGROV-1 64.9 µM | K562 20.7 µM | KM12 24.1 µM | Malme-3M 17.7 µM | NCI-H226 24.7 µM | NCI-H23 11.7 µM | NCI-H460 33.9 µM | OVCAR-4 18.3 µM | OVCAR-8 35.8 µM | SF-295 28.8 µM | SK-OV-3 > 100 µM | SNB-75 22.1 µM | SR 17.3 µM | TK-10 24.9 µM | U-251 29.9 µM | UACC-62 18.2 µM

COC(=O)/C=C/c1ccc2c(c1)CC1(Cc3ccccc3C1)C2
inactive: 786-0 > 100 µM | A498 > 100 µM | ACHN > 100 µM | IGROV-1 > 100 µM | K562 37.5 µM | KM12 > 100 µM | LOX IMVI > 100 µM | Malme-3M > 100 µM | NCI-H226 > 100 µM | NCI-H23 55.7 µM | OVCAR-4 > 100 µM | OVCAR-8 > 100 µM | SF-295 > 100 µM | SK-OV-3 > 100 µM | SR 32.6 µM | TK-10 > 100 µM | U-251 > 100 µM | UACC-62 15.2 µM

O=C1C(Cl)C(c2ccccc2Cl)N1n1cnc2ccccc2c1=O (stereo not given)
inactive: 786-0 75.7 µM | ACHN 76.2 µM | IGROV-1 80.4 µM | K562 18.7 µM | KM12 > 100 µM | LOX IMVI 19.6 µM | Malme-3M > 100 µM | NCI-H226 8.32 µM | NCI-H23 49.1 µM | NCI-H460 > 100 µM | OVCAR-4 > 100 µM | OVCAR-8 > 100 µM | SF-295 29.4 µM | SK-OV-3 24.2 µM | SNB-75 20.2 µM | SR 5.13 µM | TK-10 46.7 µM | U-251 48.4 µM | UACC-62 21.6 µM

CCOP(C)(=O)C(Cc1c[nH]c2ccccc12)C(=O)O (stereo not given)
inactive: 786-0 > 100 µM | A498 > 100 µM | ACHN > 100 µM | IGROV-1 > 100 µM | K562 > 100 µM | KM12 > 100 µM | Malme-3M > 100 µM | OVCAR-8 > 100 µM | SF-295 > 100 µM | SK-OV-3 > 100 µM | SNB-75 > 100 µM | SR > 100 µM | U-251 > 100 µM | UACC-62 > 100 µM

N#C/C(=C1/c2cc([N+](=O)[O-])ccc2-c2c1cc([N+](=O)[O-])cc2[N+](=O)[O-])N1CCCCC1
inactive: 786-0 39.2 µM | A498 > 100 µM | ACHN > 100 µM | IGROV-1 49.5 µM | K562 > 100 µM | KM12 > 100 µM | Malme-3M > 100 µM | NCI-H226 > 100 µM | NCI-H23 55.7 µM | OVCAR-4 23.9 µM | OVCAR-8 > 100 µM | SF-295 > 100 µM | SK-OV-3 93.1 µM | SNB-75 16.9 µM | SR 1.34 µM | TK-10 > 100 µM | U-251 71.8 µM | UACC-62 68.4 µM

O=C(O)c1nc(-c2ccc(Cl)c(Cl)c2)nc2ccc(Cl)cc12
inactive: 786-0 48.4 µM | A498 > 100 µM | ACHN > 100 µM | IGROV-1 51.5 µM | K562 > 10 µM | KM12 > 100 µM | Malme-3M > 100 µM | NCI-H23 38.3 µM | NCI-H460 > 100 µM | OVCAR-8 70.6 µM | SF-295 45.9 µM | SK-OV-3 17.8 µM | SNB-75 13.6 µM | SR 64.4 µM | TK-10 44.8 µM | U-251 61.5 µM | UACC-62 > 100 µM

O=S(=O)(O)c1cc(/N=N/c2c(O)ccc3ccccc23)cc2c(S(=O)(=O)O)cccc12
inactive: 786-0 > 100 µM | A498 > 100 µM | ACHN > 100 µM | IGROV-1 > 100 µM | K562 > 100 µM | KM12 > 100 µM | Malme-3M 33.7 µM | NCI-H226 > 100 µM | NCI-H460 > 100 µM | OVCAR-4 > 100 µM | OVCAR-8 > 100 µM | SF-295 > 100 µM | SK-OV-3 > 100 µM | SNB-75 > 100 µM | SR > 100 µM | TK-10 > 100 µM | U-251 > 100 µM | UACC-62 > 100 µM

O=C(Cc1nc2ccccc2s1)C(=O)Nc1cccc(C(F)(F)F)c1
inactive: 786-0 > 100 µM | A498 > 100 µM | ACHN > 100 µM | IGROV-1 > 100 µM | KM12 > 100 µM | Malme-3M > 100 µM | NCI-H226 > 100 µM | NCI-H23 > 100 µM | NCI-H460 > 100 µM | OVCAR-4 > 100 µM | OVCAR-8 > 100 µM | SF-295 > 100 µM | SK-OV-3 > 100 µM | SNB-75 > 100 µM | SR > 100 µM | TK-10 > 100 µM | U-251 > 100 µM | UACC-62 > 100 µM
